Measured values taken from PMC5527824 (Frontiers in bioscience (Scholar edition), 2015).
“And” between values parts separate entries of the source, which are not always exact repeats. Equal entries are not always repeated. Where two headings read alike, the source gives them in different places.

Columns and labels:
[1] = rat, in vivo, po; cited from earlier work
[2] = test system: APPswe/PS1dE9 double transgenic AD mice; details: AD mice 12 months of age, 0.05% in food; cited from earlier work
[3] = test system: rodent model of depression; details: oral administration; cited from earlier work
[4] = test system: APPswe/PS1dE9 double transgenic AD mice; details: AD mice 12 months of age, 0.05% in food; cited from earlier work; remark: listed apart in the source
[5] = test system: aluminum chloride toxicity in mice; details: oral 15 mg/kg bw; cited from earlier work
tMCAO in mice [6] = details: cited from earlier work; for intracellular TNF-α production in macrophages / TNF-α–producing microglia: brain
15-LOX = details: rabbit reticulocytes; cited from earlier work
cytochrome P450 2C9 = cytochrome P450 2C9 (Homo sapiens, UniProt P11712); assay: cytochrome P450 2C9 inhibition; format: in vitro ADME; details: at concentrations up to 10 μM; unpublished results
Nrf2 = details: basal half-life ~15 min; cited from earlier work
[7] = test system: APPswe/PS1dE9 double transgenic AD mice; details: cited from earlier work
COX1 (Human platelets) = COX1 (Human platelets) (Homo sapiens, UniProt P23219); assay: COX1 inhibition; format: biochemical
[8] = target: 5-LOX from human peripheral blood mononuclear leukocytes (PBML) (Homo sapiens, UniProt P09917); assay: 5-LOX inhibition; format: biochemical; details: Fisetin IC50, 5-LOX
R6/2 mouse = details: R6/2 mice, cited from earlier work
[9] = test system: mouse HT22 hippocampal nerve cell line; details: read-out: EC50, protection from IAA-induced death; HT22 cells; cited from earlier work
[10] = test tube assays; cited from earlier work
PC12 cells = details: of ~30 flavonoids tested; cited from earlier work
HT22 cells = details: cited from earlier work
PC12/Htt^Q103 cells = details: 10 μM, 24 hr after induction of Httex1-103QP; cited from earlier work
[11] = test system: rodent model of depression; details: oral administration; cited from earlier work; remark: listed apart in the source
cytochrome P450 2D6 = cytochrome P450 2D6 (Homo sapiens, UniProt P10635); assay: cytochrome P450 2D6 inhibition; format: in vitro ADME; details: at concentrations up to 10 μM; unpublished results
liver microsomes = details: ferrous sulfate/ascorbate; cited from earlier work
[12] = rats, intravenous and oral administration; cited from earlier work
tMCAO in mice [13] = details: cited from earlier work
[14] = pharmacokinetics in mice, oral; format: in vivo, mouse; details: oral 50 mg/kg bw, unpublished results
[15] = target: 15-LOX from rabbit reticulocytes (Oryctolagus cuniculus, UniProt P12530); assay: 15-LOX inhibition; details: Fisetin IC50, 15-LOX
[16] = test system: mouse N9 microglial cells; details: cited from earlier work
monoamine oxidase A = details: stated as possible mechanism; cited from earlier work
[17] = test system: mouse hippocampal HT22 cells; details: cited from earlier work
COX2 (Human recombinant) = COX2 (Human recombinant) (Homo sapiens, UniProt P35354); assay: COX2 inhibition; format: biochemical
ATF4 = details: basal half-life ~10 min; cited from earlier work
Akita mice [18] = details: cited from earlier work
Aβ = details: cell-free assay system; cited from earlier work
[19] = cited from earlier work
[20] = short-term toxicity study in mice; format: in vivo; details: oral 2000 mg/kg bw, examined for 48 hr, outside laboratory
5-LOX = details: stimulated peritoneal leukocytes; cited from earlier work
cytochrome P450 3A4 = cytochrome P450 3A4 (Homo sapiens, UniProt P08684); assay: cytochrome P450 3A4 inhibition; format: in vitro ADME; details: at concentrations up to 10 μM; unpublished results
[21] = test system: NF-κB coactivator CBP/p300; details: human monocytes; cited from earlier work
RAW264.7 macrophages = details: RAW264.7, via increased MKP-1 levels; cited from earlier work
nerve cell = details: of ~30 flavonoids tested; cited from earlier work
[22] = mouse, intravenous 223 mg/kg bw; cited from earlier work
hERG = hERG (Homo sapiens, UniProt Q12809); assay: hERG activity; details: at concentrations up to 10 μM, the highest concentration tested; unpublished results
[23] = 0.05% in diet for 9 months (~25 mg/kg bw), vs control; cited from earlier work
[24] = test system: scopolamine-induced memory impairment in mice; details: cited from earlier work
[25] = cited from earlier work; remark: listed apart in the source
[26] = test system: APPswe/PS1dE9 double transgenic AD mice; details: 0.05% in food, cited from earlier work
[27] = test system: BV-2 microglial cell line; details: BV-2 cells; cited from earlier work
Akita mice [28] = assay: Ins2^Akita mouse model of type 1 diabetes; format: in vivo; details: 0.05% in diet for 18 weeks
12-LOX = details: fish gill; cited from earlier work
[29] = test system: human lung adenocarcinoma cell line H1299; details: H1299 cells; cited from earlier work
proteasome = details: cited from earlier work
[30] = cited from earlier work; remark: listed apart in the source

Chain of 5-LOX from human peripheral blood mononuclear leukocytes (PBML) (P09917 whole entry): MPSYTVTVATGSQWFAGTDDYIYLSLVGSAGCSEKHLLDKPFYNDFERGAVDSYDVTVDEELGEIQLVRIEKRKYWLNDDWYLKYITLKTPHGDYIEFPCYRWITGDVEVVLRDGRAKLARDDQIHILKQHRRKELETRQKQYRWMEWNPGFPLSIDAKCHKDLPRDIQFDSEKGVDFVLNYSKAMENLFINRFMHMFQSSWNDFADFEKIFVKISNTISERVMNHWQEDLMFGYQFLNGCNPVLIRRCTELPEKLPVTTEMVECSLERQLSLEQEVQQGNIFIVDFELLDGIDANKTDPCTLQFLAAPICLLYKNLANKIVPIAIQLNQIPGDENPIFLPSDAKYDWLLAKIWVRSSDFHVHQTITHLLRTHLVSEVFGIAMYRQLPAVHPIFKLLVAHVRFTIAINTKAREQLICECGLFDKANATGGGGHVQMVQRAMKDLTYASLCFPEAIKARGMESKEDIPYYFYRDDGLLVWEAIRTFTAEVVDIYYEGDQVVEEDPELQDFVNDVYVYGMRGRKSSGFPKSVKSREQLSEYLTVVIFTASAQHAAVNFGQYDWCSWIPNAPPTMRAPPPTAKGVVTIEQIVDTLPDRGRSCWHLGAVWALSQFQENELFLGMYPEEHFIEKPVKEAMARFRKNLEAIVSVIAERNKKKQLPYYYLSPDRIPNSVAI
Chain of 15-LOX from rabbit reticulocytes (P12530 whole entry): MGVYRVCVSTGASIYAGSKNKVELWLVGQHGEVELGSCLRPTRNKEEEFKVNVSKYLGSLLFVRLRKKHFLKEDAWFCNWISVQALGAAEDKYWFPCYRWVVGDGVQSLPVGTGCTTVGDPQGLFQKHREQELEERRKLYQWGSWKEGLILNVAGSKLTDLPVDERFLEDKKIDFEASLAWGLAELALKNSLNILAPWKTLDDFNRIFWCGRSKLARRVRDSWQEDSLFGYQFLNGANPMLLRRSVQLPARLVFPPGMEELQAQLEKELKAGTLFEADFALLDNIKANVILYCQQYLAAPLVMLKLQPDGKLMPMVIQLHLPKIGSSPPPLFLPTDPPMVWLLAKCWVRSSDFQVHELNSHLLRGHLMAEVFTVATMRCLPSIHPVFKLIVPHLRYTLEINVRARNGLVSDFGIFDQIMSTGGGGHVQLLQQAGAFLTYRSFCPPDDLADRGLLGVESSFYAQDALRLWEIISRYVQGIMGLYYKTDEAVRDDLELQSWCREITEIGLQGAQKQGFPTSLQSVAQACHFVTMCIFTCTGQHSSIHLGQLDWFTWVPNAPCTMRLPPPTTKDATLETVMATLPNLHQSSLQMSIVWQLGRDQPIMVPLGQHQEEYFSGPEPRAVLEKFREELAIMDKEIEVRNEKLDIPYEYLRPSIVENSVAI
Chain of cytochrome P450 2D6 (P10635 whole entry): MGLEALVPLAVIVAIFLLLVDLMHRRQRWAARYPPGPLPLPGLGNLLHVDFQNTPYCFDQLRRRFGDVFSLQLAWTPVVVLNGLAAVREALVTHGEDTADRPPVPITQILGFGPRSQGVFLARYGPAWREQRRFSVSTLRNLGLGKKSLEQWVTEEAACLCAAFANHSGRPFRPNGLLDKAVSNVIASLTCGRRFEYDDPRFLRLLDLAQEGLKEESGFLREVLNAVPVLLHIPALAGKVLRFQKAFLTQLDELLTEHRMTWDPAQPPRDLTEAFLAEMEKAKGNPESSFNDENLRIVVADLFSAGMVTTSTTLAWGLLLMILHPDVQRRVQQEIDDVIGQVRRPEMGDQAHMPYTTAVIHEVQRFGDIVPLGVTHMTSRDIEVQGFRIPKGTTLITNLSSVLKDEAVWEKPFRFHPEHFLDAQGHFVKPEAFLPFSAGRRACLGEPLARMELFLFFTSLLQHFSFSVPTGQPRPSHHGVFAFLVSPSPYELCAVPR
Chain of cytochrome P450 2C9 (P11712 whole entry): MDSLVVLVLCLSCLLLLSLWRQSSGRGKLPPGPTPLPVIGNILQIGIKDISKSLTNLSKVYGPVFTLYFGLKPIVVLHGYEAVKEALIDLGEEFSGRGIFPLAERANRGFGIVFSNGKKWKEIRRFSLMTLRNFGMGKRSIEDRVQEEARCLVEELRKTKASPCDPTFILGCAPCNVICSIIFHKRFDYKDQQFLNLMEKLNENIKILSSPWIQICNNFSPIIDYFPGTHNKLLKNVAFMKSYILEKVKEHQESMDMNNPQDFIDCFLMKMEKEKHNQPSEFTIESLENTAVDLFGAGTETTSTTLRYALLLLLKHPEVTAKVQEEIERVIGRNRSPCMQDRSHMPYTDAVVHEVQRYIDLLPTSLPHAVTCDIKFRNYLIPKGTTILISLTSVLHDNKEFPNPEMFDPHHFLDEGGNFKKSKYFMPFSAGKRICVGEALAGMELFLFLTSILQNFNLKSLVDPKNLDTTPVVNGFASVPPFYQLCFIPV
Chain of COX1 (Human platelets) (P23219 24-599): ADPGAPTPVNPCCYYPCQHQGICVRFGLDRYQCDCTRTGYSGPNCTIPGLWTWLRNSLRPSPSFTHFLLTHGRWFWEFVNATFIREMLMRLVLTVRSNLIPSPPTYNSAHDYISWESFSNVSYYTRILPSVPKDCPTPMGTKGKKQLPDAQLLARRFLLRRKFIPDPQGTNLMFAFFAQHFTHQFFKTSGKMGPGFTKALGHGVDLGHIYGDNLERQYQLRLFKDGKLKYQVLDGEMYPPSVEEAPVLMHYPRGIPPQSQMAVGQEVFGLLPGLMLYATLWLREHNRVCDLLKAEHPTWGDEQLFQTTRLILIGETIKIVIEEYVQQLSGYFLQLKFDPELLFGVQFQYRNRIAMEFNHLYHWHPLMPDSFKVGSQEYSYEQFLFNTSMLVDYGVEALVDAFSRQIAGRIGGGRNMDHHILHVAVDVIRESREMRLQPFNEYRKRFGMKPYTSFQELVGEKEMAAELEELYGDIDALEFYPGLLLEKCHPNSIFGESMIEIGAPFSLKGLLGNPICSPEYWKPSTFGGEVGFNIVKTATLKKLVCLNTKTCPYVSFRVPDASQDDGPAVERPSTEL
Chain of COX2 (Human recombinant) (P35354 18-604): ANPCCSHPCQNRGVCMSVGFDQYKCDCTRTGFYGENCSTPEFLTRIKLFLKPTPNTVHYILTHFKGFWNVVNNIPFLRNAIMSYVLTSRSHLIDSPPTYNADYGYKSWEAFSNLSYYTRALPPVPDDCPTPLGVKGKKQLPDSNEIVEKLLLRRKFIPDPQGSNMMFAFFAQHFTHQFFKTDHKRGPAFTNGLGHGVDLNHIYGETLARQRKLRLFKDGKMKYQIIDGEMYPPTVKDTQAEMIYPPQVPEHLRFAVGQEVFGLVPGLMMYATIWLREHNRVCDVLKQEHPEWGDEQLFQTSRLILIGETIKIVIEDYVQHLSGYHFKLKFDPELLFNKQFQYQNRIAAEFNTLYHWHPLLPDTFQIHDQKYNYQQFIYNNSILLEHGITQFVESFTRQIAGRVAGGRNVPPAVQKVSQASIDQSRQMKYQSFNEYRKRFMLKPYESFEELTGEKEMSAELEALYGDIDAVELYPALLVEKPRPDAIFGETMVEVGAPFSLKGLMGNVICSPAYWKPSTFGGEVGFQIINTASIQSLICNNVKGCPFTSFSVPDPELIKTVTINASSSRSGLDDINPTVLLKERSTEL
Chain of cytochrome P450 3A4 (P08684 whole entry): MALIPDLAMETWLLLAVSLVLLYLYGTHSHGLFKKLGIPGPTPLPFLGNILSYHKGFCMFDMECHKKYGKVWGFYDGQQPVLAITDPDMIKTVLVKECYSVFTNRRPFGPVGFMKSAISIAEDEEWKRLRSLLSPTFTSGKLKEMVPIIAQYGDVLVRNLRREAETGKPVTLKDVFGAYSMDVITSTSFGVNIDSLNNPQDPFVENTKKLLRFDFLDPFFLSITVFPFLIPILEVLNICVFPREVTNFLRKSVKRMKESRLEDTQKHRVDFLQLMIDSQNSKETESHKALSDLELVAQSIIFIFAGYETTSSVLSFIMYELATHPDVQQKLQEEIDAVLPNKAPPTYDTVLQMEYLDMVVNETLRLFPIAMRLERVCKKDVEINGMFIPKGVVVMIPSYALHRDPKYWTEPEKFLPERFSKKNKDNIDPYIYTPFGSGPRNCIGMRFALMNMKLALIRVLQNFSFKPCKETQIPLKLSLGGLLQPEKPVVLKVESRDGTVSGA

O=c1cc(-c2ccccc2)oc2cc(O)c(O)c(O)c12 [baicalein]
levels of free and conjugated flavonoid [1]: ≤ 1000 nM

O=c1c(O)c(-c2ccc(O)c(O)c2)oc2cc(O)ccc12 [fisetin, 3,3′,4′,7-tetrahydroxyflavone]
time in the open arms (disinhibition) [2]: reversed
most effective dose at reducing immobility time [3]: 20 mg/kg bw
escape latency, hidden platform day 2 [4]: indistinguishable from that of the wild type mice
loss of total GSH from cortex and hippocampus [5]: greatly reduce the loss of total GSH
leukocytes infiltrating the brain (tMCAO in mice [6]; 50 mg/kg bw, day 3, mean ± SD, placebo 179,252 ± 23,389): 93,045 ± 46,963 cells per ischemic hemisphere
numbers of microglia in the ipsilesional hemisphere (tMCAO in mice [6]; 50 mg/kg bw, day 3 after stroke, vs placebo): no significant differences
intracellular TNF-α production in macrophages (tMCAO in mice [6]; day 3, placebo 24.6%): 2.9%
TNF-α–producing microglia (tMCAO in mice [6]; day 3, placebo 30.4%): 17.3%
TNF-α–producing microglia (tMCAO in mice [6]; day 7, placebo 31.9%): 26.8%
intracellular TNF-α production in macrophages (tMCAO in mice [6]; day 7, placebo 33.8%): 13.9%
TNF-α production in macrophages and DCs isolated from spleen (tMCAO in mice [6]; day 3 and day 7 post ischemia, vs placebo): did not show any differences
inhibition of 15-LOX activity (15-LOX): effective inhibitor
inhibition of cytochrome P450 2C9 activity (cytochrome P450 2C9): no inhibitory effects
increase of Nrf2 half-life (Nrf2): ~ 2 fold
production of PGD2, PGJ2 and 15d-PGD2 ([7]; AD mice study): increased production
ERK phosphorylation in the hippocampus ([7]; AD mice treated with fisetin): increases in ERK phosphorylation
AD-increased production of thromboxanes TXB1 and TXB2 ([7]; AD mice, 0.05% in food): partly prevented
astrocyte area and intensity of GFAP staining in hippocampus ([7]; AD mice, 0.05% in food): largely reversed
brain levels of 5-HETE and 12-HETE ([7]; AD mice): significantly reduce
Aβ1–40 level in RIPA soluble fraction of hippocampus ([7]; ELISA, Aβ1–42 not reduced): significantly reduce
Aβ plaque loads in brain sections ([7]; fisetin-fed vs control AD mice): No significant differences
IC50 (COX1 (Human platelets)): > 10000 nM
IC50 [8]: 585 nM and 580 nM
median life span (R6/2 mouse; 0.05% in food from ~6 weeks of age, control diet 104 days): 139 days
rotorod performance (R6/2 mouse; 0.05% in food, at 9, 11 and 13 weeks (p < 0.01)): improved
increase of median life span (R6/2 mouse; 0.05% in food, vs control diet): ~ 30%
EC50 [9]: 3000 nM
concentration at which pro-oxidant effects are seen [10]: ≥ 50 µM
differentiation of PC12 cells (neurotrophic activity) (PC12 cells): promoting the differentiation of PC12 cells
extracellular Aβ toxicity (HT22 cells): prevents extracellular Aβ toxicity
protection of cells (PC12/Htt^Q103 cells): equal or greater amount of protection
Ames test (Ames test): negative
most effective dose at reducing immobility time [11]: 20 mg/kg bw
inhibition of cytochrome P450 2D6 activity (cytochrome P450 2D6): no inhibitory effects
concentration decreasing lipid peroxidation (liver microsomes): 1.35 µM
t1/2 of free fisetin in serum [12]: 2.7 min
infarct size (tMCAO in mice [13]; 25 mg/kg i.p. 20 min before onset of ischemia, placebo 56 μl): 49 µL
infarct size (tMCAO in mice [13]; 50 mg/kg i.p. 20 min before onset of ischemia, placebo 56 μl): 30 µL
infarct size (tMCAO in mice [13]; 50 mg/kg i.p. three hours after onset of ischemia, placebo 42 μl): 27 µL
half-life of free fisetin [14]: very short half-life
IC50 [15]: 341 nM and 340 nM
reduction of iNOS expression ([16]; 10 μM, following LPS stimulation (p<0.001)): 91%
IκB, JNK and c-Jun phosphorylation ([16]; LPS-stimulated murine microglia): significantly reduced
LPS-induced nitric oxide and TNF-α production ([16]; N9 cells, vs placebo): significant inhibition
inhibition of monoamine oxidase A (monoamine oxidase A): mild inhibition
reduction in the ability of fisetin to maintain cellular GSH levels ([17]; siRNA to ATF4, basal and glutamate-induced oxidative stress conditions): ~ 50%
effect of Nrf2 reduction on the ability of fisetin to maintain GSH levels ([17]; siRNA to Nrf2, basal conditions): no effect
reduction in the ability of fisetin to maintain GSH ([17]; siRNA to Nrf2, in the presence of oxidative stress): ~ 30%
IC50 (COX2 (Human recombinant)): > 10000 nM
increase of ATF4 half-life (ATF4): ~ 2 fold
elevated blood glucose and HbA1c (Akita mice [18]; 0.05% in food (25–40 mg/kg bw daily), 6 to 24 weeks): not affected
open field test, distance traveled and time ambulatory (anxiety-related symptoms) (Akita mice [18]; 0.05% in food): restored to near normal values
weight loss (Akita mice [18]; 0.05% in food): not altered
Aβ fibril formation (Aβ): inhibit Aβ fibril formation
Trolox equivalent antioxidant capacity (TEAC) value [19]: ~ 3
short-term toxicity [20]: No indications of toxicity
inhibition of 5-LOX activity (5-LOX): effective inhibitor
inhibition of cytochrome P450 3A4 activity (cytochrome P450 3A4): no inhibitory effects
activity of CBP/p300 [21]: suppress
p38 MAPK and JNK activation (RAW264.7 macrophages): suppresses
maintenance of GSH levels in the presence of oxidative stress (nerve cell): able to maintain GSH levels
t1/2 of free fisetin in serum [22]: 3.12 h
inhibition of hERG activity (hERG): no inhibition
body weights [23]: No significant differences
loss of total GSH from the cortex ([24]; scopolamine-treated mice): prevent the loss of total GSH
rescue of memory deficit induced by scopolamine ([24]; single oral dose of 40 mg/kg bw): as effective as donepezil
chelation of iron [25]: efficient chelation
swim speeds [26]: no effect
MWM probe test, memory (time in platform quadrant) ([26]; AD mice 9 months of age): clear evidence of memory improvement
LPS-induced nitric oxide production, TNF-α, PGE2 and iNOS/COX2 expression [27]: blocked
decrease in motor nerve conduction velocity (Akita mice [28]): ameliorated
increase in hind paw thermal latency (Akita mice [28]): prevented
inhibition of 12-LOX activity (12-LOX): effective inhibitor
NF-κB-dependent reporter gene expression and protein expression [29]: reduced
proteasome activity (proteasome): increase proteasome activity

COc1cc(-c2oc3cc(O)ccc3c(=O)c2O)ccc1O [geraldol, 3,4′,7-trihydroxy-3′-methoxyflavone]
activity in several biological assays [30]: as active as fisetin

COc1cc(-c2oc3cc(O)cc(O)c3c(=O)c2O)ccc1O [isorhamnetin]
differentiation of PC12 cells (neurotrophic activity) (PC12 cells): some differentiation-inducing activity

O=c1cc(-c2ccc(O)c(O)c2)oc2cc(O)cc(O)c12 [luteolin]
differentiation of PC12 cells (neurotrophic activity) (PC12 cells): some differentiation-inducing activity

O=c1c(O)c(-c2ccc(O)c(O)c2)oc2cc(O)cc(O)c12 [quercetin, reference compound]
differentiation of PC12 cells (neurotrophic activity) (PC12 cells): some differentiation-inducing activity
maintenance of GSH levels in the presence of oxidative stress (nerve cell): able to maintain GSH levels
